Source: patent publication US4837241A (priority 1986, dated 1989)

How the values were obtained:
[1] = target: muscarinic acetylcholine receptors; format: binding, rat (male Wistar); settings: 3H-QNB 1 nM; whole forebrain membranes, male Wistar rats; 37° C., 20 min, pH 7.1; non-specific: atropine 1 μg/ml
[2] = background, in words; cited from earlier work
muscarinic = settings: background, in words; cited from earlier work
[3] = background, in words; cited from earlier work; remark: listed apart in the source
muscarinic cholinergic = settings: background, in words; cited from earlier work

SMILES: CCc1noc(C2=CCCN(C)C2)n1
- QNB binding Inhibition in vitro (IC50) [1]: 3.5 µg/mL

SMILES: CN1CCC=C(c2nc(C3CC3)no2)C1
- QNB binding Inhibition in vitro (IC50) [1]: 2.0 µg/mL

SMILES: CCCc1nc(C2=CCCN(C)C2)no1
- QNB binding Inhibition in vitro (IC50) [1]: 3.2 µg/mL

SMILES: CC(C)c1noc(C2=CCCN(C)C2)n1
- QNB binding Inhibition in vitro (IC50) [1]: 4.9 µg/mL

SMILES: C1=C(c2nc(C3CC3)no2)CNCC1
- QNB binding Inhibition in vitro (IC50) [1]: 4.7 µg/mL

SMILES: CCCCc1noc(C2=CCC(C)N(C)C2)n1 (centres unmarked)
- QNB binding Inhibition in vitro (IC50) [1]: 3.3 µg/mL

SMILES: CCc1noc(C2=CC(C)CNC2)n1 (centres unmarked)
- QNB binding Inhibition in vitro (IC50) [1]: 7.5 µg/mL

SMILES: COC(=O)C1=CCCN(C)C1 [arecoline, methyl 1-methyl-1,2,5,6-tetrahydropiperidine-3-carboxylate]
- biological half life [2]: very short biological half life
- separation between central and peripheral muscarinic effects (muscarinic): small separation between central and peripheral muscarinic effects
- toxicity [3]: rather toxic compound
- cholinergic agonist (muscarinic cholinergic): cholinergic agonist
